From patent publication US20240315991A1, “USES OF HNF4 ALPHA AGONISTS” (Sanford Burnham Prebys Medical Discovery Institute, priority 2023, published 2024)
“Also recorded” adds a separate entry of the source.

Experiments:
[1] = tested on: C57BL/6 mice fed high fat diet (HFD); experiment: HFD induced weight gain and hepatic steatosis, NCT in HFD chow for 10 weeks; format: in vivo
Experimental: (§1) NCT oral administration. Four-week-old male C57BL/6J (JAX cat #000664) mice were purchased from Jackson laboratory and were maintained in a 12 h light/dark cycle throughout the experiment. Prior to the experiments, mice were acclimated for 2 weeks. Six-week-old mice with similar body weights were randomized to a normal diet (NC), a high fat diet (HFD) (Research Diets, cat #D12492 60 kcal % fat) or HFD containing 4000 ppm NCT (HFD+NCT) (Research Diets, 60 kcal % fat+4000 ppm NCT), which was calculated to provide approximately 400 mg/kg/d NCT. HFD chow containing NCT was made with gray dye to distinguish it from regular HFD chow that had green dye. Mice for each treatment group were placed in separate cages. Equal amounts of fresh chow were provided every week to all mice. Body weight gain and food intake were measured every week for 10 weeks. After 10 weeks of chow treatment, mice were sacrificed for analysis. All animal experiments were approved by the Institutional Animal Care and Use Committee (IACUC) of the Sanford Burnham Prebys Medical Discovery Institute in accordance with national regulations. Sample size was chosen based on the prior study of NCT delivered by IP injection.
Sample collection. Mouse samples were collected as described previously. Briefly, on the final day of treatment mice received dextrose (3 g/kg of body weight) by IP injection to stimulate insulin secretion, which inhibits FFA release from adipocytes, leaving liver-derived FFA as the major source of circulating FFA. One hour later, blood samples were collected via retro-orbital bleeding and mice were euthanized using pentobarbital. Mice were dissected aseptically and liver, epididymal fat, and body weights were measured and pictures taken. Dissected liver samples were washed immediately in sterile cold PBS and cut into small pieces. Half of the liver samples were snap frozen using liquid nitrogen and stored at −80° C. for RNA, protein isolation, and liver lysate preparations. The other half were fixed in 4% of cold paraformaldehyde (PFA, Santa Cruz Biotechnology, USA) and processed for histomorphometry and immunofluorescence.
Oil Red O staining (in vivo) and analysis. Oil red O staining was performed as described previously. Slides containing frozen liver tissue sections from mice were air dried for 10-20 min followed by rehydration in distilled water. Sections were immersed in absolute propylene glycol (Cat #151957, MP Biomedicals, LLC, USA) for 2 min followed by 0.5% in Oil red O solution (Cat #K043, Poly Scientific R&D, USA) for 2 h. Slides were then differentiated in 85% propylene glycol solution, washed with dH2O for 2 h, and mounted using glycerin jelly mounting medium. All slides were scanned at a magnification of ×20 using the Aperio Scanscope FL system (Aperio Technologies Inc., Vista, CA, USA). The liver area stained with oil red O was measured using image J software as described, with some modifications as follow, Oil red O-stained liver images were opened in Image J software. Using the Analyze>Set Scale command, the scale bar of the images was set to 200 μm. RGB images were then converted into grayscale images using the Image>Type>RGB Stack command and were split into red, blue and green channels. Using the Image>Adjust>Threshold command, the threshold was manually set to highlight the Oil red O-stained lipid droplets in the green channel. The same threshold was used for all the images in all treatment groups and the % oil red O-stained area was obtained using the Analyze->Measure tool command. Fold change was calculated by normalizing the values to images from mice fed normal chow.
Triglyceride analysis. The TG level in mouse liver, serum, and stool was measured according to manufacturer's instructions using the Triglyceride calorimetric Assay Kit (Cat #10010303, Cayman Chemicals, USA). Liver and stool TG was normalized with liver and stool weight, respectively. Fold change was calculated by normalizing to values from mice fed NC. […]

PPARGC1A(PGC1a) = experiment: Western blotting of liver, PPARGC1A(PGC1a); format: in vivo, mouse; details: HFD+NCT vs HFD, FIGS. 4A-4C
Experimental: as §1
Western blotting. Mouse liver extracts were prepared by incubation in RIPA buffer (Invitrogen) containing protease inhibitors (Calbiochem, SanDiego, CA). Protein was quantified by BCA assay (Thermo Scientific). […]

PPARγ mRNA = experiment: RT-PCR of mouse liver, PPARγ; format: in vivo; details: HFD+NCT vs HFD, to the level of mice on normal chow, FIG. 3N
Experimental: as §1, with “All animal experiments were approved by the Institutional Animal Care and Use Committee (IACUC) of the Sanford Burnham Prebys Medical Discovery Institute in accordance with national regulations. Sample size was chosen based on the prior study of NCT delivered by IP injection.” left out
RT-PCR. […] Quantitative real time PCR (RT-PCR) analysis was performed using SYBR® Select Master Mix (Applied Biosystems) and an ABI 7900HT thermal cycler (Applied Biosystems, Thermo Fisher Scientific). Ct values were normalized to 18s rRNA and are expressed as fold change over samples from mice fed NC or cultured human hepatocytes without NCT.

[2] = HFD containing 4000 ppm NCT, end of the experiment at 10 weeks

Compound: O=C(/C=C/c1ccc(O)c(O)c1)NCCc1ccc(O)cc1 [NCT, N-trans caffeoyltyramine]
- body weight compared with mice fed HFD alone ([1]; C57BL/6 mice, HFD containing 4000 ppm NCT, 10 weeks): substantially less; also recorded: weighed less
- week at which lower body weight than HFD alone became evident ([1]; HFD containing 4000 ppm NCT): 5 week
- body weight less than mice fed HFD [1, 2]: ~10 g
- difference in body weight vs mice fed HFD [1, 2]: 35-40%
- Oil Red O staining of liver ([1]; HFD+NCT vs HFD, 10 weeks): decreased
- liver redness ([1]; HFD+NCT vs HFD, 10 weeks): increase; also recorded: redder
- liver size ([1]; HFD+NCT vs HFD, 10 weeks): reductions
- liver weight ([1]; HFD+NCT vs HFD, 10 weeks): lower
- obesity ([1]; HFD+NCT vs HFD, 10 weeks): markedly less obese
- subcutaneous fat ([1]; HFD+NCT vs HFD, 10 weeks): substantially less
- visceral adiposity ([1]; HFD+NCT vs HFD, 10 weeks): reductions
- hepatic TG level ([1]; HFD+NCT vs HFD, 10 weeks, normalized to liver weight): decreased
- epididymal fat pad weight ([1]; HFD+NCT vs HFD, end of study, normalized with total body weight): no change
- toxicity from NCT consumption ([1]; mice fed HFD containing NCT): no evidence of any toxicity
- mitochondrial mass ([1]; mice fed HFD containing NCT vs HFD alone): increased
- PPARGC1A(PGC1a) protein level in mouse liver (PPARGC1A(PGC1a)): increase
- PPARγ expression in liver (PPARγ mRNA): reduce
